ChEMBL document CHEMBL1201862, “PubChem BioAssay data set” (2004)
Several values for one entry are separate records, joined by “and”; a condition that tells them apart may be missing. Equal entries are not always repeated.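 How tested: cells in 96-well plates exposed to compound for 48 hours at five concentrations. GI50: concentration for 50% inhibition of growth.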 Activity calls are given as the source filed them. Rule as the data show it: active = GI50 up to about 1.1 µM and inactive = higher.

Key:
Assay in all cases: NCI tumour cell line growth inhibition, 48 h
[1] = system: 786-0
[2] = system: A498
[3] = system: COLO 205
[4] = system: DU-145
[5] = system: HCT-116
[6] = system: HOP-62
[7] = system: HT-29
[8] = system: KM12
[9] = system: MDA-MB-231
[10] = system: Malme-3M
[11] = system: OVCAR-8
[12] = system: RPMI-8226
[13] = system: SF-268
[14] = system: SW-620
[15] = system: TK-10
[16] = system: UACC-257
[17] = system: UACC-62
[18] = system: OVCAR-3
[19] = system: SK-MEL-2
[20] = system: RXF 393

Measured: GI50

COc1ccc(C(=O)/C=C/c2ccc(OCCSCCCCCCCCCCSCCOc3ccc(/C=C/C(=O)c4ccc(OC)c(OC)c4)cc3)cc2)cc1OC
inactive: [1] > 100 µM | [2] > 100 µM | [3] > 100 µM | [4] > 100 µM | [5] > 100 µM | [6] > 100 µM | [7] > 100 µM | [8] > 100 µM | [9] > 100 µM | [10] > 100 µM | [11] > 100 µM | [12] > 100 µM | [13] > 100 µM | [14] > 100 µM | [15] > 100 µM | [16] > 100 µM | [17] > 100 µM

CN(/N=C/c1ccccc1C(=O)O)C1=NCCCCN1
inactive: [1] > 100 µM | [2] > 100 µM | [3] > 100 µM | [4] > 100 µM | [5] > 100 µM | [6] > 100 µM | [7] > 100 µM | [8] > 100 µM | [9] > 100 µM | [10] > 100 µM | [18] > 100 µM | [11] > 100 µM | [12] > 100 µM | [13] > 100 µM | [19] > 100 µM | [14] > 100 µM | [15] > 100 µM | [16] > 100 µM | [17] > 100 µM

CCC(CCCCC1CC[C@H]2CC(=O)C[C@@H]12)OC (some centres undefined)
inactive: [1] > 100 µM | [2] > 100 µM | [3] > 100 µM | [4] > 100 µM | [5] > 100 µM | [7] > 100 µM | [9] > 100 µM | [18] > 100 µM | [11] > 100 µM | [20] > 100 µM | [13] > 100 µM | [19] > 100 µM | [14] > 100 µM | [15] > 100 µM | [16] 72.3 µM

CN(C)CCNCCN
inactive: [1] > 100 µM | [2] > 100 µM | [3] > 100 µM | [4] > 100 µM | [5] > 100 µM | [6] > 100 µM | [7] > 100 µM | [8] > 100 µM | [9] > 100 µM | [10] > 100 µM | [18] > 100 µM | [11] > 100 µM | [12] > 100 µM | [13] > 100 µM | [19] > 100 µM | [14] > 100 µM | [15] > 100 µM | [16] > 100 µM | [17] > 100 µM

C=CCOc1ccc(C(=N/NC(=O)c2ccccc2)/N=N/c2ccc(C)cc2)cc1OC
inactive: [1] 33.9 µM | [2] 25.6 µM | [3] 16.5 µM | [4] 37.2 µM | [5] 19 µM | [6] 37.8 µM | [7] 20.3 µM | [8] 18.1 µM | [9] 24.4 µM | [10] 21.1 µM | [18] 25.9 µM | [11] 25.4 µM | [13] 52.7 µM | [19] 23.2 µM | [14] 31.4 µM | [15] 30 µM | [16] 19.6 µM | [17] 14.3 µM

OCc1cc2c([nH]c3ccccc32)c(C(O)CO)n1 (centres undefined)
inactive: [1] > 100 µM | [2] > 100 µM | [3] > 100 µM | [4] > 100 µM | [5] > 100 µM | [7] > 100 µM | [8] > 100 µM | [9] > 100 µM | [10] > 100 µM | [18] > 100 µM | [11] > 100 µM | [12] > 100 µM | [13] > 100 µM | [19] > 100 µM | [14] > 100 µM | [15] > 100 µM | [16] > 100 µM | [17] > 100 µM

Cn1c(=O)c2c(ncn2Cc2ccc(O)c([N+](=O)[O-])c2)n(C)c1=O
inactive: [1] > 100 µM | [2] > 100 µM | [3] > 100 µM | [4] > 100 µM | [5] > 100 µM | [6] > 100 µM | [7] > 100 µM | [8] > 100 µM | [9] > 100 µM | [18] > 100 µM | [11] > 100 µM | [12] > 100 µM | [13] > 100 µM | [19] > 100 µM | [14] > 100 µM | [15] > 100 µM | [16] > 100 µM | [17] > 100 µM

O=CNCCCN1CCN(CCCNC=O)CC1
inactive: [1] > 100 µM | [2] > 100 µM | [3] > 100 µM | [4] > 100 µM | [5] > 100 µM | [6] > 100 µM | [7] > 100 µM | [8] > 100 µM | [9] > 100 µM | [18] > 100 µM | [11] > 100 µM | [12] > 100 µM | [13] 4.88 µM | [19] > 100 µM | [14] > 100 µM | [15] > 100 µM | [16] > 100 µM | [17] > 100 µM

COC(=O)C(=O)C(C(=O)C(=O)Nc1cccc(OC)c1)c1nc2ccc(Cl)cc2nc1O (centres undefined)
inactive: [1] > 100 µM | [2] > 100 µM | [3] > 100 µM | [4] > 100 µM | [5] > 100 µM | [7] > 100 µM | [8] > 100 µM | [9] > 100 µM | [10] > 100 µM | [18] > 100 µM | [11] > 100 µM | [12] > 100 µM | [13] > 100 µM | [19] > 100 µM | [14] > 100 µM | [15] > 100 µM | [16] > 100 µM | [17] 89.3 µM

CN(C)Cc1cc(C(=O)/C=C/c2ccc(Cl)cc2Cl)cc(CN(C)C)c1O
inactive: [1] 3.77 µM | [2] 2.4 µM | [3] 1.44 µM | [4] 4.73 µM | [5] 3.07 µM | [6] 3.54 µM | [7] 2.07 µM | [8] 1.47 µM | [9] 2.11 µM | [10] 8.85 µM | [18] 2.99 µM | [11] 2.33 µM | [12] 3.85 µM | [20] 2.51 µM | [13] 3.88 µM | [14] 2.81 µM | [15] 11.5 µM | [16] 5.11 µM

NC(=O)c1ccc[n+](C2=C([N-]S(=O)(=O)c3ccccc3)C(=O)c3ccccc3C2=O)c1
inactive: [1] 17.8 µM | [3] 12.8 µM | [4] 19.1 µM | [5] 17.5 µM | [6] 17.9 µM | [7] 17.1 µM | [8] 13.1 µM | [9] 18.1 µM | [10] 6.22 µM | [18] 5.08 µM | [11] 14.9 µM | [12] 26.2 µM | [20] 15.8 µM | [13] 16.6 µM | [19] 12.8 µM | [14] 16.6 µM | [15] 20.4 µM | [16] 14.2 µM | [17] 17.9 µM

O=[N+]([O-])C(=C(NCc1ccccc1)NCc1ccccc1)C(Cl)=C(Cl)Cl
inactive: [1] 43.6 µM | [2] 61.7 µM | [3] 19.4 µM | [4] 69.3 µM | [5] 30 µM | [6] > 100 µM | [7] 39.5 µM | [8] 20.3 µM | [9] 29.4 µM | [10] 19 µM | [18] 21.6 µM | [11] 36.6 µM | [12] 29.9 µM | [20] 28 µM | [13] 20.8 µM | [14] 36.9 µM | [15] 35.9 µM | [16] 38.1 µM | [17] 30.9 µM

O=C1/C(=C/c2ccco2)NC(=S)N1CN1CCCCC1
inactive: [1] 70.1 µM | [2] > 100 µM | [3] 51.4 µM | [4] > 100 µM | [5] 57.4 µM | [6] > 100 µM | [7] 25.8 µM | [8] > 100 µM | [9] > 100 µM | [10] 85.5 µM | [18] > 100 µM | [11] 43.7 µM | [12] 28.8 µM | [13] 68.4 µM | [19] > 100 µM | [14] 38.5 µM | [15] > 100 µM | [17] 57.9 µM

O=c1[nH]nc(Cc2ccccc2)n1O
inactive: [1] > 100 µM | [2] > 100 µM | [3] > 100 µM | [4] > 100 µM | [5] > 100 µM | [6] > 100 µM | [7] > 100 µM | [8] > 100 µM | [9] > 100 µM | [10] > 100 µM | [18] > 100 µM | [11] > 100 µM | [12] > 100 µM | [13] > 100 µM | [19] > 10 µM | [14] > 100 µM | [15] > 100 µM | [16] > 100 µM | [17] > 100 µM

COC(=O)[C@@H]1CC(C(C[N+](=O)[O-])c2ccc(O[Si](C)(C)C(C)(C)C)cc2)C(=O)N1C(=O)OC(C)(C)C (some centres undefined)
inactive: [1] > 100 µM | [2] > 100 µM | [4] > 100 µM | [5] 63.1 µM | [6] > 100 µM | [8] > 100 µM and 76.6 µM | [9] > 100 µM | [10] > 100 µM and 97.9 µM | [18] > 100 µM | [11] > 100 µM | [20] 29.9 µM and 20.6 µM | [13] > 100 µM and 95.3 µM | [19] > 100 µM | [14] > 100 µM | [15] > 100 µM | [16] > 100 µM and 88.7 µM
